# Patent publication US11420947B2, “(S)-n-hydroxy-2-(2-(4-methoxyphenyl)butanamido)thiazole-5-carboxamide and pharmaceutically acceptable salts thereof” (TRANSLATIONAL DRUG DEVELOPMENT, LLC, priority 2018, dated 2022)
# What was measured:
# Test in all cases: CellTiter-Glo cell viability assay
# Type in all cases: cell-based
# A549 = conditions: for IC50: Homo sapiens, A549, LUNG, NSCLC, 72 hours
# Procedure: (§1) Cell viability in the presence of varying concentrations of the above listed compounds at different time points was used to assess cytotoxicity and the effect of the compounds on cell proliferation.
# (§2) Cell viability was measured by the CellTiter-Glo® cell viability assay from Promega (Madison, Wis.). The CellTiter-Glo® Luminescent Cell Viability Assay is a homogeneous method to determine the number of viable cells in culture based on quantitation of the ATP present, which signals the presence of metabolically active cells. Following treatment, CellTiter-Glo® is added to treatment wells and incubated at 37° C. luminescence values were measured at using a Molecular Devices Spectramax microplate reader
# (§3) Cells were grown to 70% confluency, trypsinized, counted, and seeded in 96 well flat-bottom plates at a final concentration of 2.5×10^3-5×10^3 cells/well (Day 0). Cells were allowed to incubate in growth media for 24 hours. Treatment with the test agents or standard agents began on Day 1 and continued for 72 hours. At the 72-hour timepoint, treatment containing media was removed. Viable cell numbers are quantified by the CellTiter-Glo® cell viability assay as described above. Results from these studies were used to calculate an IC50 value (concentration of drug that inhibits cell growth by 50 percent of control) for each compound.
# (§4) For single agent and combination studies, data from each experiment was collected and expressed as % Cell Growth using the following calculation: % Cell Growth=(ftest/fvehicle)×100
# (§5) Where test is the fluorescence of the tested sample, and fvehicle is the fluorescence of the vehicle in which the drug is dissolved. Dose response graphs and IC50 values were generated using Prism 6 software (GraphPad) using the following equation: Y=(Top-Bottom)/(1+10^((logIC^50^-X)-HillSlope))
# A375 = conditions: for IC50: Homo sapiens, A-375, A375, MELANOMA, Malignant Melanoma, 72 hours
# Procedure: as §1, §2, §3, §4, §5
# G401 = conditions: for IC50: Homo sapiens, G-401, G401, RENAL, Rhabdoid Tumor, 72 hours
# Procedure: as §1, §2, §3, §4, §5
# AN3CA = conditions: for IC50: Homo sapiens, AN3-CA, AN3CA, ENDOMETRIAL, 72 hours
# Procedure: as §1, §2, §3, §4, §5
# SN12CCP = conditions: for IC50: SN12CCP, RENAL, RCC, 72 hours
# Procedure: as §1, §2, §3, §4, §5
# THP-1 = conditions: for IC50: Homo sapiens, THP-1, HEMATOPIETIC, AML, 72 hours
# Procedure: as §1, §2, §3, §4, §5
# H1650 = conditions: for IC50: Homo sapiens, NCI-H1650, H1650, LUNG, NSCLC, 72 hours
# Procedure: as §1, §2, §3, §4, §5
# NCI-H820 = conditions: for IC50: NCI-H820, LUNG, NSCLC, 72 hours
# Procedure: as §1, §2, §3, §4, §5
# A427 = conditions: for IC50: Homo sapiens, A-427, A427, LUNG, Carcinoma, 72 hours
# Procedure: as §1, §2, §3, §4, §5
# Ishikawa = conditions: for IC50: Homo sapiens, Ishikawa, ENDOMETRIAL, 72 hours
# Procedure: as §1, §2, §3, §4, §5
# H460 = conditions: for IC50: Homo sapiens, NCI-H460, H460, LUNG, NSCLC, 72 hours
# Procedure: as §1, §2, §3, §4, §5
# MSTO-211H = conditions: for IC50: Homo sapiens, MSTO-211H, LUNG, Mesothelioma, 72 hours
# Procedure: as §1, §2, §3, §4, §5
# L363 = conditions: for IC50: Homo sapiens, L-363, L363, HEMATOPIETIC, MM, 72 hours
# Procedure: as §1, §2, §3, §4, §5
# HCC70 = conditions: for IC50: Homo sapiens, HCC70, BREAST, TNBC, 72 hours
# Procedure: as §1, §2, §3, §4, §5
# KG-1 = conditions: for IC50: Homo sapiens, KG-1, HEMATOPIETIC, AML, 72 hours
# Procedure: as §1, §2, §3, §4, §5
# MOLM-13 = conditions: for IC50: Homo sapiens, MOLM-13, HEMATOPIETIC, AML, 72 hours
# Procedure: as §1, §2, §3, §4, §5
# OAW28 = conditions: for IC50: Homo sapiens, OAW-28, OAW28, OVARIAN, ovarian cystadenocarcinoma, 72 hours
# Procedure: as §1, §2, §3, §4, §5
# G402 = conditions: for IC50: Homo sapiens, G-402, G402, RENAL, Renal leiomyoblastoma, 72 hours
# Procedure: as §1, §2, §3, §4, §5
# Huh-7-luc = conditions: for IC50: Huh-7-luc, LIVER, HCC, 72 hours
# Procedure: as §1, §2, §3, §4, §5
# CCRF-CEM = conditions: for IC50: Homo sapiens, CCRF-CEM, HEMATOPIETIC, ALL, 72 hours
# Procedure: as §1, §2, §3, §4, §5
# MDA-MB-231 = conditions: for IC50: Homo sapiens, MDA-MB-231, BREAST, TNBC, 72 hours
# Procedure: as §1, §2, §3, §4, §5
# MeWo = conditions: for IC50: Homo sapiens, MeWo, MELANOMA, LN Met, 72 hours
# Procedure: as §1, §2, §3, §4, §5
# HT-29 = conditions: for IC50: Homo sapiens, HT-29, COLON, CRC, 72 hours
# Procedure: as §1, §2, §3, §4, §5
# SNU-1 = conditions: for IC50: Homo sapiens, SNU1, SNU-1, GASTRIC, Carcinoma, 72 hours
# Procedure: as §1, §2, §3, §4, §5
# Y79 = conditions: for IC50: Homo sapiens, Y79, RETINOBLASTOMA, Retina, 72 hours
# Procedure: as §1, §2, §3, §4, §5
smiles,measurement,setting,value
"CCC(C(=O)Nc1ncc(C(=O)NO)s1)c1ccc(OC)cc1 (racemic) [#1, N-hydroxy-2-(2-(4-methoxyphenyl)butanamido)thiazole-5-carboxamide]",IC50,A549,0.076 µM
same,IC50,A375,0.269 µM
same,IC50,G401,0.091 µM
same,IC50,AN3CA,0.066 µM
same,IC50,SN12CCP,0.126 µM
same,IC50,THP-1,0.065 µM
same,IC50,H1650,0.363 µM
same,IC50,NCI-H820,0.085 µM
same,IC50,A427,0.309 µM
same,IC50,Ishikawa,0.048 µM
same,IC50,H460,0.079 µM
same,IC50,MSTO-211H,0.128 µM
same,IC50,L363,0.044 µM
same,IC50,HCC70,0.1 µM
same,IC50,KG-1,0.022 µM
same,IC50,MOLM-13,0.062 µM
same,IC50,OAW28,0.288 µM
same,IC50,G402,0.102 µM
same,IC50,Huh-7-luc,0.185 µM
same,IC50,CCRF-CEM,0.028 µM
same,IC50,MDA-MB-231,0.113 µM
same,IC50,MeWo,0.158 µM
same,IC50,HT-29,0.136 µM
same,IC50,SNU-1,0.509 µM
same,IC50,Y79,0.363 µM
"CC[C@H](C(=O)Nc1ncc(C(=O)NO)s1)c1ccc(OC)cc1 [#1a, (S)—N-hydroxy-2-(2-(4-methoxyphenyl)butanamido)thiazole-5-carboxamide]",IC50,A549,0.052 µM
same,#1/#1a,"A549; ratio of IC50, A549",1.46
same,#1b/#1a,"A549; ratio of IC50, A549",7.65
same,IC50,A375,0.032 µM
same,#1/#1a,"A375; ratio of IC50, A375",8.41
same,#1b/#1a,"A375; ratio of IC50, A375",20.34
same,IC50,G401,0.05 µM
same,#1/#1a,"G401; ratio of IC50, G401",1.82
same,#1b/#1a,"G401; ratio of IC50, G401",8.14
same,IC50,AN3CA,0.047 µM
same,#1/#1a,"AN3CA; ratio of IC50, AN3CA",1.4
same,#1b/#1a,"AN3CA; ratio of IC50, AN3CA",4.87
same,IC50,SN12CCP,0.055 µM
same,#1/#1a,"SN12CCP; ratio of IC50, SN12CCP",2.29
same,#1b/#1a,"SN12CCP; ratio of IC50, SN12CCP",7.45
same,IC50,THP-1,0.032 µM
same,#1/#1a,"THP-1; ratio of IC50, THP-1",2.03
same,#1b/#1a,"THP-1; ratio of IC50, THP-1",6.13
same,IC50,H1650,0.174 µM
same,#1/#1a,"H1650; ratio of IC50, H1650",2.09
same,#1b/#1a,"H1650; ratio of IC50, H1650",6.91
same,IC50,NCI-H820,0.054 µM
same,#1/#1a,"NCI-H820; ratio of IC50, NCI-H820",1.57
same,#1b/#1a,"NCI-H820; ratio of IC50, NCI-H820",7.37
same,IC50,A427,0.186 µM
same,#1/#1a,"A427; ratio of IC50, A427",1.66
same,#1b/#1a,"A427; ratio of IC50, A427",7.77
same,IC50,Ishikawa,0.028 µM
same,#1/#1a,"Ishikawa; ratio of IC50, Ishikawa",1.71
same,#1b/#1a,"Ishikawa; ratio of IC50, Ishikawa",6.82
same,IC50,H460,0.05 µM
same,#1/#1a,"H460; ratio of IC50, H460",1.58
same,#1b/#1a,"H460; ratio of IC50, H460",7.26
same,IC50,MSTO-211H,0.052 µM
same,#1/#1a,"MSTO-211H; ratio of IC50, MSTO-211H",2.46
same,#1b/#1a,"MSTO-211H; ratio of IC50, MSTO-211H",6.77
same,IC50,L363,0.021 µM
same,#1/#1a,"L363; ratio of IC50, L363",2.1
same,#1b/#1a,"L363; ratio of IC50, L363",8.1
same,IC50,HCC70,0.052 µM
same,#1/#1a,"HCC70; ratio of IC50, HCC70",1.92
same,#1b/#1a,"HCC70; ratio of IC50, HCC70",6.56
same,IC50,KG-1,0.012 µM
same,#1/#1a,"KG-1; ratio of IC50, KG-1",1.83
same,#1b/#1a,"KG-1; ratio of IC50, KG-1",12.33
same,IC50,MOLM-13,0.028 µM
same,#1/#1a,"MOLM-13; ratio of IC50, MOLM-13",2.21
same,#1b/#1a,"MOLM-13; ratio of IC50, MOLM-13",7.46
same,IC50,OAW28,0.085 µM
same,#1/#1a,"OAW28; ratio of IC50, OAW28",3.39
same,#1b/#1a,"OAW28; ratio of IC50, OAW28",6.61
same,IC50,G402,0.065 µM
same,#1/#1a,"G402; ratio of IC50, G402",1.57
same,#1b/#1a,"G402; ratio of IC50, G402",7.71
same,IC50,Huh-7-luc,0.068 µM
same,#1/#1a,"Huh-7-luc; ratio of IC50, Huh-7-luc",2.72
same,#1b/#1a,"Huh-7-luc; ratio of IC50, Huh-7-luc",7.25
same,IC50,CCRF-CEM,0.014 µM
same,#1/#1a,"CCRF-CEM; ratio of IC50, CCRF-CEM",2
same,#1b/#1a,"CCRF-CEM; ratio of IC50, CCRF-CEM",8.07
same,IC50,MDA-MB-231,0.062 µM
same,#1/#1a,"MDA-MB-231; ratio of IC50, MDA-MB-231",1.82
same,#1b/#1a,"MDA-MB-231; ratio of IC50, MDA-MB-231",10.42
same,IC50,MeWo,0.083 µM
same,#1/#1a,"MeWo; ratio of IC50, MeWo",1.9
same,#1b/#1a,"MeWo; ratio of IC50, MeWo",7.37
same,IC50,HT-29,0.043 µM
same,#1/#1a,"HT-29; ratio of IC50, HT-29",3.16
same,#1b/#1a,"HT-29; ratio of IC50, HT-29",9.53
same,#1/#1a,"SNU-1; ratio of IC50, SNU-1",3.86
same,#1b/#1a,"SNU-1; ratio of IC50, SNU-1",10.63
same,IC50,Y79,0.087 µM
same,#1/#1a,"Y79; ratio of IC50, Y79",4.17
same,#1b/#1a,"Y79; ratio of IC50, Y79",7.25
"CC[C@@H](C(=O)Nc1ncc(C(=O)NO)s1)c1ccc(OC)cc1 [#1b, (R)—N-hydroxy-2-(2-(4-methoxyphenyl)butanamido)thiazole-5-carboxamide]",IC50,A549,0.398 µM
same,IC50,A375,0.651 µM
same,IC50,G401,0.407 µM
same,IC50,AN3CA,0.229 µM
same,IC50,SN12CCP,0.41 µM
same,IC50,THP-1,0.196 µM
same,IC50,H1650,1.2 µM
same,IC50,NCI-H820,0.398 µM
same,IC50,A427,1.45 µM
same,IC50,Ishikawa,0.191 µM
same,IC50,H460,0.363 µM
same,IC50,MSTO-211H,0.352 µM
same,IC50,L363,0.17 µM
same,IC50,HCC70,0.341 µM
same,IC50,KG-1,0.148 µM
same,IC50,MOLM-13,0.209 µM
same,IC50,OAW28,0.562 µM
same,IC50,G402,0.501 µM
same,IC50,Huh-7-luc,0.493 µM
same,IC50,CCRF-CEM,0.113 µM
same,IC50,MDA-MB-231,0.646 µM
same,IC50,MeWo,0.612 µM
same,IC50,HT-29,0.41 µM
same,IC50,SNU-1,1.4 µM
same,IC50,Y79,0.631 µM
